What was measured:
[1] = system: MDA-MB-231 cells
[2] = system: PBMC; conditions: 12.5 µM

| SMILES | Average (percentage cell inhibition), Dmastoparan MDA-MB231 12.5uM [1] [%] | Average (percentage cell inhibition), Mastoparan PBMC [2] [%] |
| --- | --- | --- |
| CC[C@H](C)[C@H](N)C(=O)N[C@@H](CC(N)=O)C(=O)N[C@@H](CC(C)C)C(=O)N[C@@H](CCCCN)C(=O)N[C@@H](C)C(=O)N[C@@H](CC(C)C)C(=O)N[C@@H](C)C(=O)N[C@@H](C)C(=O)N[C@@H](CC(C)C)C(=O)N[C@@H](C)C(=O)N[C@@H](CC(C)C)C(=O)N[C@@H](CCCCN)C(=O)N[C@H](C(=O)N[C@@H](CC(C)C)C(N)=O)[C@@H](C)CC [L11] | 59.9826 | 23.4198 |
| CC[C@H](C)[C@H](N)C(=O)N[C@@H](CC(N)=O)C(=O)N[C@@H](CC(C)C)C(=O)N[C@@H](CCCCN)C(=O)N[C@@H](C)C(=O)N[C@@H](CC(C)C)C(=O)N[C@@H](CCCCN)C(=O)N[C@@H](C)C(=O)N[C@@H](CC(C)C)C(=O)N[C@@H](C)C(=O)N[C@@H](CCCCN)C(=O)N[C@@H](CCCCN)C(=O)N[C@H](C(=O)N[C@@H](CC(C)C)C(N)=O)[C@@H](C)CC [K7] | 38.2404 | 5.806 |
| CC[C@H](C)[C@H](N)C(=O)N[C@@H](CC(N)=O)C(=O)N[C@@H](CC(C)C)C(=O)N[C@@H](CCCCN)C(=O)N[C@@H](C)C(=O)N[C@@H](CC(C)C)C(=O)N[C@@H](CCCNC(=N)N)C(=O)N[C@@H](C)C(=O)N[C@@H](CC(C)C)C(=O)N[C@@H](C)C(=O)N[C@@H](CCCCN)C(=O)N[C@@H](CCCCN)C(=O)N[C@H](C(=O)N[C@@H](CC(C)C)C(N)=O)[C@@H](C)CC [R7] | 35.9182 | 3.182 |
| CC[C@H](C)[C@H](N)C(=O)N[C@H](C(=O)N[C@@H](CC(C)C)C(=O)N[C@@H](CCCCN)C(=O)N[C@@H](C)C(=O)N[C@@H](CC(C)C)C(=O)N[C@@H](C)C(=O)N[C@@H](C)C(=O)N[C@@H](CC(C)C)C(=O)N[C@@H](C)C(=O)N[C@@H](CCCCN)C(=O)N[C@@H](CCCCN)C(=O)N[C@H](C(=O)N[C@@H](CC(C)C)C(N)=O)[C@@H](C)CC)[C@@H](C)CC [I2] | 82.9517 | 42.1735 |
| CC[C@H](C)[C@H](N)C(=O)N[C@@H](CC(N)=O)C(=O)N[C@@H](CC(C)C)C(=O)N[C@@H](CCCCN)C(=O)N[C@@H](C)C(=O)N[C@@H](CC(C)C)C(=O)N[C@@H](C)C(=O)N[C@@H](C)C(=O)N[C@@H](CC(C)C)C(=O)N[C@H](C(=O)N[C@@H](CCCCN)C(=O)N[C@@H](CCCCN)C(=O)N[C@H](C(=O)N[C@@H](CC(C)C)C(N)=O)[C@@H](C)CC)C(C)C [V10] | 85.9235 | 37.352 |
| CC[C@H](C)[C@H](N)C(=O)N[C@@H](CC(N)=O)C(=O)N[C@@H](CC(C)C)C(=O)N[C@@H](CCCCN)C(=O)N[C@@H](C)C(=O)N[C@@H](CC(C)C)C(=O)N[C@@H](CCC(N)=O)C(=O)N[C@@H](C)C(=O)N[C@@H](CC(C)C)C(=O)N[C@@H](C)C(=O)N[C@@H](CCCCN)C(=O)N[C@@H](CCCCN)C(=O)N[C@H](C(=O)N[C@@H](CC(C)C)C(N)=O)[C@@H](C)CC [Q7] | 23.653 | 9.246 |
| CC[C@H](C)[C@H](N)C(=O)N[C@@H](CC(N)=O)C(=O)N[C@@H](CC(C)C)C(=O)N[C@@H](CCCCN)C(=O)N[C@@H](C)C(=O)N[C@@H](CC(C)C)C(=O)N[C@@H](C)C(=O)N[C@@H](C)C(=O)N[C@@H](CC(C)C)C(=O)N[C@@H](CC(N)=O)C(=O)N[C@@H](CCCCN)C(=O)N[C@@H](CCCCN)C(=O)N[C@H](C(=O)N[C@@H](CC(C)C)C(N)=O)[C@@H](C)CC [N10] | 9.754 | 1.8653 |

— article PMC12748989 (Nature Communications, 2025)
